# Laboratory results reported in patent US20080051379A1, “Compositions and Methods for the Treatment of Peripheral B-Cell Neoplasms” (Trustees of Boston University, priority 2004, published 2008).
# What was measured:
# [1] = test system: CCRF-CEM cells; test: MTS cell survival assay, CCRF-CEM cells; format: cell-based, human; details: 72 hours
# Procedure: (§1) In FIG. 5A, the polyclonal parental cell line (CCRF-CEM), the single cell-derived glucocorticoid-resistant subclone (CEM-R8) and the single cell-derived glucocorticoid-sensitive subclone (CEM-S2) were cultured for 72 hours in the presence of vehicle (ETOH) or dexamethasone at the concentrations indicated and cell viability was assessed by the MTS assay as described in Methods. In FIG. 5B, the glucocorticoid-resistant subclone (CEM-R8) and the glucocorticoid-sensitive subclone (CEM-S2) were cultured for 72 hours in the presence of hydrocortisone (HC) (10 μM HC for the CEM-R8 cells and 1 μM HC for the CEM-S2 cells), 10 μM forskolin (Fsk), 10 μM rolipram (Rol), or combinations of these agents as indicated, and cell viability was assessed by the MTS assay as described in Methods. FIG. 5C: The glucocorticoid-resistant subclone (CEM-R8) and the glucocorticoid-sensitive subclone (CEM-S2) were cultured for 72 hours in the presence of varying amounts of dibutyryl cAMP (db-cAMP) in the absence (−HC) or presence (+HC) of 1 μM hydrocortisone as indicated, and cell viability was assessed by the MTS assay as described in Methods. […]
# (§2) Hoechst 33342 and DiOC6(3) apoptosis assays were performed as previously described^22,28. […] The absorbance (O.D.) of the formazan product was determined at 492 nm using a plate reader (Titertek Multiscan Plus, Labsystems). […]
# [2] = test system: B-CLL cells; test: Hoechst 33342 apoptosis assay, B-CLL cells; format: cell-based, human; details: for augmentation of hydrocortisone-induced apoptosis: 10 μM PDE inhibitor + 1 μM hydrocortisone; for apoptosis by Hoechst 33342 analysis: 48 hrs culture, Roli 10 μM, HC 1 μM
# Procedure: FIGS. 1A-D show the effects of the cyclic nucleotide phosphodiesterase inhibitors rolipram, RO20-1724 and cilostamide on hydrocortisone and dexamethasone-induced apoptosis in B-CLL. In FIG. 1A, leukemic cells from 11 B-CLL patients were assessed for apoptosis by […] analysis after 48 hrs culture in media alone (No treatment), 10 μM rolipram (Roli), 1 μM hydrocortisone (HC) or a combination of the two drugs (Roli+HC). In FIGS. 1B and 1C, leukemic cells from five patients with B-CLL were cultured in media alone or with a dose titration of hydrocortisone (1B: solid line) or dexamethasone (1C: solid line), followed by assessment for apoptosis by Hoechst 33342 FACS analysis at 48 hours. Using the same experimental conditions, the effect of addition of 10 μM rolipram (thick dashed line) to the glucocorticoids was also assessed. In FIG. 1D, the apoptotic effects of the PDE4 inhibitor RO20-1724 (RO20) (10 μM) or the PDE3 inhibitor cilostamide (Cilost) (10 μM) were assessed on B-CLL cells when combined with 1 μM hydrocortisone. Data represent the mean±SEM of triplicate samples.
# Blood samples were obtained by IRB-approved consent from flow cytometry-confirmed B-CLL patients that were either untreated or for whom at least one month had elapsed since chemotherapy. Patients with active infections or other serious medical conditions were not included in this study.
# CCRF-CEM cells were obtained from ATCC^27. Leukemic or normal mononuclear cells were obtained by centrifugation over Histopaque 1077 (Sigma Chemical Company, St. Louis, Mo.). For purification of T cells, whole mononuclear cells from normal subjects were incubated with magnetic beads coated with appropriate antibodies, then positively purified using a magnet (Miltenyi). Cells were cultured in RPMI 1640 media (Biowhittaker, Walkersville, Md.) supplemented with 10% fetal calf serum, 50 μMol/L 2-mercaptoethanol, 2 mMol/L L-glutamine, 10 mM Hepes pH 7.4, […] (Sigma Chemical Company, St. Louis, Mo.). For isolation of glucocorticoid resistant clones, parental CCRF-CEM cells were treated with 1 μM dexamethasone for 10 days, and surviving cells diluted to ≦one cell/well in a 96-well flat-bottom tissue culture plate, grown for three weeks in media supplemented with 20% fetal calf serum and 1% insulin-transferrin-selenium (GIBCO), and then transferred to regular growth medium. […] For isolation of glucocorticoid-sensitive clones, the same procedure was used, except that treatment with dexamethasone was omitted. A glucocorticoid-sensitive subclone (CEM-S2) was inhibited in its survival by dexamethasone with an IC50=0.007 μM.
# Hoechst 33342 and DiOC6(3) apoptosis assays were performed as previously described^22,28. For CCRF-CEM cell survival assays, cells were plated at a density of 3×10^4/well in 96-well flat-bottom plates in the presence of test reagents or vehicle in 0.1 mL media. Following incubation for 72 hrs, 20 μl of a 20:1 MTS (2 mg/mL)/PMS (0.92 mg/ml) solution was added to each well, and the plates incubated for 2 hrs at 37°. The absorbance (O.D.) of the formazan product was determined at 492 nm using a plate reader (Titertek Multiscan Plus, Labsystems). Percent cell viability was calculated as follows: (O.D. control sample−O.D. blank)/(O.D. test sample−O.D. blank)×100. All assays were performed in triplicate.
# [3] = test system: PDE4; details: cited from earlier work
# [4] = test system: GRE luciferase constructs transiently transfected into B-CLL cells; test: GRE luciferase transactivation in B-CLL cells; format: cell-based, human; details: 1 mM Rp-8Br-cAMPS; 8 B-CLL samples; p<0.02
# Procedure: B-CLL cells (FIG. 3A) or CCRF-CEM cells (FIG. 3B) were transiently transfected with a luciferase construct in which expression is regulated by GRE elements, followed by culture in 10 μM rolipram (R), 40 μM forskolin (Fsk), 1 μM hydrocortisone (HC), 1 mM Rp-8Br-cAMPS (Rp-8Br) or combinations of these agents. 12 hours after addition of the drugs, the relative luminescence of the samples was determined. The data shown are the mean of 8 experiments for B-CLL and two experiments for CCRF-CEM cells. The single asterisk denote a significant difference by paired student's t test between HC alone and either R/HC (FIG. 3A) or F/HC (FIG. 3B) (p<0.02). The double asterisk denotes a significant difference between Rp-8Br-cAMPS/HC and HC alone (p<0.02).
# An MMTV GRE luciferase construct, originally created by Dr. R. Evans, was a gift from Dr. Remco Spanjaard (Dept. of Otolaryngology, Boston Medical Center)^29. 100 million B CLL cells in 200 μl of PBS were added to 500 μl of Nucleofector Solution D containing 30 μg of endotoxin-free (Qiagen) MMTV luciferase constructs. 100 μl was used per transfection using a Nucleofector electroporation instrument (Amaxa Biosystems, Koeln, Germany) using program U16. […] Up to six such aliquots of transfected cells were diluted in media and pooled, prior to distribution of 8 million cells/well in 48 well plates. Two hours after transfection, drugs, cytokines or vehicle alone were added to the transfected cells. 14 hours after transfection, samples were processed using a luciferase assay kit (Promega). Triplicate samples were analyzed with an MGM Instruments Optocomp I luminometer (Hamden, Conn.). Analysis of cell viability (trypan blue exclusion) and total protein (Pierce) verified that equivalent numbers of viable B-CLL cells were analyzed. 100 million CCRF-CEM cells were similarly transfected, cultured and analyzed except that Nucleofector program O17 was utilized. […] Data were analyzed using a two-sided paired t test for means.
# [5] = test system: B-CLL cells; test: Hoechst 33342 apoptosis assay, B-CLL cells; format: cell-based, human; details: 1 mM Rp-8Br-cAMPS + 1 μM hydrocortisone, 48 hours; six B-CLL patients
# [6] = test system: glucocorticoid-sensitive subclone (CEM-S2); test: MTS cell survival assay, CEM-S2; format: cell-based, human; details: 72 hours
# Procedure: In FIG. 5A, the polyclonal parental cell line (CCRF-CEM), the single cell-derived glucocorticoid-resistant subclone (CEM-R8) and the single cell-derived glucocorticoid-sensitive subclone (CEM-S2) were cultured for 72 hours in the presence of vehicle (ETOH) or dexamethasone at the concentrations indicated and cell viability was assessed by the MTS assay as described in Methods. In FIG. 5B, the glucocorticoid-resistant subclone (CEM-R8) and the glucocorticoid-sensitive subclone (CEM-S2) were cultured for 72 hours in the presence of hydrocortisone (HC) (10 μM HC for the CEM-R8 cells and 1 μM HC for the CEM-S2 cells), 10 μM forskolin (Fsk), 10 μM rolipram (Rol), or combinations of these agents as indicated, and cell viability was assessed by the MTS assay as described in Methods. FIG. 5C: The glucocorticoid-resistant subclone (CEM-R8) and the glucocorticoid-sensitive subclone (CEM-S2) were cultured for 72 hours in the presence of varying amounts of dibutyryl cAMP (db-cAMP) in the absence (−HC) or presence (+HC) of 1 μM hydrocortisone as indicated, and cell viability was assessed by the MTS assay as described in Methods. The data shown were normalized to the vehicle control. Results represent the mean±SD of triplicate determinations.
# (§3) CCRF-CEM cells were obtained from ATCC^27. Leukemic or normal mononuclear cells were obtained by centrifugation over Histopaque 1077 (Sigma Chemical Company, St. Louis, Mo.). For purification of T cells, whole mononuclear cells from normal subjects were incubated with magnetic beads coated with appropriate antibodies, then positively purified using a magnet (Miltenyi). […]
# as §2, with “Labsystems). Percent cell viability was calculated as follows: (O.D. control sample−O.D. blank)/(O.D. test sample−O.D. blank)×100.” for “Labsystems).”
# [7] = test system: glucocorticoid-resistant subclone (CEM-R8); test: MTS cell survival assay, CEM-R8; format: cell-based, human; details: dexamethasone-resistant CCRF-CEM cells; dbcAMP dose response, 72 hours
# Procedure: as §1, §2
# [8] = test system: CD3+ CD4+ Sezary cells; test: Hoechst 33342 apoptosis assay, Sezary cells; format: cell-based, human; details: 10 μM rolipram or 1 μM hydrocortisone; one patient
# Procedure: Magnetic bead purified peripheral blood T cells or leukemic cells from patients with B-CLL or Sezary syndrome were cultured in media alone or with a dose titration of hydrocortisone (solid line), followed by assessment for apoptosis by Hoechst 33342 FACS analysis at 48 hours. Using the same experimental conditions, the effect of addition of 10 μM rolipram (thick dashed line) or 10 μM rolipram and 40 μM forskolin (dotted line) was also assessed. The SEM of triplicate samples is shown; where not visible, the SEM was less than 1.0%.
# as §3
# as §2, with “Labsystems). Percent cell viability was calculated as follows: (O.D. control sample−O.D. blank)/(O.D. test sample−O.D. blank)×100.” for “Labsystems).”
# [9] = molecular target: PDE1 enzymes; details: cited from earlier work
smiles,measurement,setting,value
"C=C[C@@]1(C)CC(=O)[C@@H]2[C@@]3(C)CCCC(C)(C)[C@@H]3[C@H](O)[C@H](OC(C)=O)[C@@]2(C)O1 [1,9 dideoxyforskolin]",augmentation of glucocorticoid sensitivity,[1],failed to augment glucocorticoid sensitivity
"CCCCOc1cc(CC2CNC(=O)N2)ccc1OC (centres unmarked) [RO20-1724, 4-(3-Butoxy-4-methoxybenzyl)-2-imidazolidinone]",augmentation of hydrocortisone-induced apoptosis,[2]; five B-CLL patients,augmented hydrocortisone-induced apoptosis
same,IC50,[3],2000 nM
"Nc1ncnc2c1nc(Br)n2C1OC2COP(O)(=S)OC2C1O (centres unmarked) [Rp-8Br-cAMPS, (Rp)-8-Br-cAMPS]",reduction of hydrocortisone-induced transactivation,[4],83%
same,inhibition of hydrocortisone-induced apoptosis,[5],86±14%
CN(C(=O)CCCOc1ccc2[nH]c(=O)ccc2c1)C1CCCCC1 [cilostamide],augmentation of hydrocortisone-induced apoptosis,[2]; five B-CLL patients,nor augmented hydrocortisone-induced apoptosis
same,induction of apoptosis by itself,"[2]; 10 μM, five B-CLL patients",neither induced apoptosis by itself
"CCCC(=O)Nc1ncnc2c1ncn2[C@@H]1O[C@@H]2COP(=O)(O)O[C@H]2[C@H]1OC(=O)CCC [dbcAMP, dibutyryl cAMP]",apoptotic effect combined with 1 μM hydrocortisone,"[6]; dexamethasone-sensitive CCRF-CEM cells, dbcAMP dose response",marked synergy
same,apoptotic effect combined with 1 μM hydrocortisone,[7],marked synergy
C[C@@H]1C[C@H]2[C@@H]3CCC4=CC(=O)C=C[C@]4(C)[C@@]3(F)[C@@H](O)C[C@]2(C)[C@@]1(O)C(=O)CO [dexamethasone],IC50,"[6]; Homo sapiens, CEM-S2 subclone, read-out: IC50, inhibition of survival",7 nM
C[C@]12CCC(=O)C=C1CC[C@@H]1[C@@H]2[C@@H](O)C[C@@]2(C)[C@H]1CC[C@]2(O)C(=O)CO [hydrocortisone],apoptosis by Hoechst 33342 analysis,"[2]; B-CLL patient #1, No Rx 10",19%
same,apoptosis by Hoechst 33342 analysis,"[2]; B-CLL patient #2, No Rx 11",16%
same,apoptosis by Hoechst 33342 analysis,"[2]; B-CLL patient #3, No Rx 13",41%
same,apoptosis by Hoechst 33342 analysis,"[2]; B-CLL patient #4, No Rx 23",42%
same,apoptosis by Hoechst 33342 analysis,"[2]; B-CLL patient #5, No Rx 25",43%
same,apoptosis by Hoechst 33342 analysis,"[2]; B-CLL patient #6, No Rx 27",33%
same,apoptosis by Hoechst 33342 analysis,"[2]; B-CLL patient #7, No Rx 31",47%
same,apoptosis by Hoechst 33342 analysis,"[2]; B-CLL patient #8, No Rx 33",60%
same,apoptosis by Hoechst 33342 analysis,"[2]; B-CLL patient #9, No Rx 35",71%
same,apoptosis by Hoechst 33342 analysis,"[2]; B-CLL patient #10, No Rx 44",75%
same,apoptosis by Hoechst 33342 analysis,"[2]; B-CLL patient #11, No Rx 61",73%
same,apoptotic effect used separately on Sezary leukemic cells,[8],little effect
CCOC(=O)C1=C[C@]2(CC)CCCN3CCc4c(n1c1ccccc41)[C@@H]32 [vinpocetine],IC50,[9],21000 nM
